Test results: US9085603B2, “Progesterone receptor antagonists” (Bayer Intellectual Property GmbH, priority 2010, dated 2015)

Assays:
[1] = biological target: T1, human progesterone receptor B (Homo sapiens, UniProt P06401); experiment: Progesterone receptor antagonistic effect in stably transfected SK-N-MC cells, MTV-LUC reporter (PR-B); format: cell-based; conditions: antagonism of 0.1 nmol/l promegestone, luciferase reporter, 24 hours
T1 construct: expressed in transfected cells; host or cells: SK-N-MC human neuroblastoma cells, stably transfected with pRChPR-B-neo and pMMTV-LUC
T1 sequence (P06401 1-933): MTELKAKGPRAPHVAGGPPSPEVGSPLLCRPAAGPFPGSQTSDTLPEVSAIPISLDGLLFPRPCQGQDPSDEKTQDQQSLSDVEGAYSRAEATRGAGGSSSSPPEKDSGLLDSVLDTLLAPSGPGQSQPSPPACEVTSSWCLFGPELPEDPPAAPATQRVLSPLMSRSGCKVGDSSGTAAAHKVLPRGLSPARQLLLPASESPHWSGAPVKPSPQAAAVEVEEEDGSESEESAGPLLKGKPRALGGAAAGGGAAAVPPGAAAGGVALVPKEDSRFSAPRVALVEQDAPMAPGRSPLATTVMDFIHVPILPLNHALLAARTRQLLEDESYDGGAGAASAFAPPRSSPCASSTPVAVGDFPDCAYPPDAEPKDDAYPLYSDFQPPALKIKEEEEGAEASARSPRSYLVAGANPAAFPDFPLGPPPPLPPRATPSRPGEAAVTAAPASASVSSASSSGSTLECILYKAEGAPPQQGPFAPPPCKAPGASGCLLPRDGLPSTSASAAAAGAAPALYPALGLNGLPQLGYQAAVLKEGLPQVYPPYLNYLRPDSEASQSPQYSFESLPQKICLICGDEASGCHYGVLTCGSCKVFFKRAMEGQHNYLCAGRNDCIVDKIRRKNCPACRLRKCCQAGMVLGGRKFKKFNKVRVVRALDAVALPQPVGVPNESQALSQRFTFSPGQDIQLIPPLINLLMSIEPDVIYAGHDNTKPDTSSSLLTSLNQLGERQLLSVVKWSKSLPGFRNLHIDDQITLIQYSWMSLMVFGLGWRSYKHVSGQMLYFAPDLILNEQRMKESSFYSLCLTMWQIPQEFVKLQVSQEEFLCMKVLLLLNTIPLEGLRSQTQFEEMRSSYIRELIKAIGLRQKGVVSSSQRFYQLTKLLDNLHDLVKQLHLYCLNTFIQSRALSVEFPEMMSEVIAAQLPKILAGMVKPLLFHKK
Description: (§1) Progesterone Receptor Antagonistic Effect in Stable Transfectants of Human Neuroblastoma Cells (SK-N-MC cells) with the Human Progesterone A or Progesterone B Receptor and a MTV-LUC Reporter Construct
(§2) SK-N-MC cells (human neuroblastoma cells), which have been stably transfected with plasmids which express the human progesterone receptor B (pRChPR-B-neo) or the human progesterone receptor A (pRChPR-A-neo) and a reporter construct (pMMTV-LUC), were incubated for 24 hours either in the absence (negative control) or in the presence of increasing amounts of the particular test compound (0.01 nmol/l, 0.1 nmol/l, 1 nmol/l, 10 nmol/l, 100 nmol/l and 1 μmol/l) in order to determine the agonistic efficacy. As a positive control of the reporter gene induction, the cells were treated with the synthetic gestagen promegestone (0.01 nmol/l, 0.1 nmol/l, 1 nmol/l, 10 nmol/l, 100 nmol/l and 1 μmol/l). To determine the antagonistic activity, the cells were treated with 0.1 nmol/l of promegestone and additionally with increasing amounts of the particular test compound (0.01 nmol/l, 0.1 nmol/l, 1 nmol/l, 10 nmol/l, 100 nmol/l and 1 μmol/l). The activity of the reporter gene LUC (LUC=luciferase) was determined in the cell lysates and measured as RLU (relative light units). All measurement values are given as percentage efficacy and as EC50 or IC50 concentrations.

[2] = biological target: T2, human progesterone receptor A (Homo sapiens, UniProt P06401); experiment: Progesterone receptor antagonistic effect in stably transfected SK-N-MC cells, MTV-LUC reporter (PR-A); format: cell-based; conditions: antagonism of 0.1 nmol/l promegestone, luciferase reporter, 24 hours
T2 construct: expressed in transfected cells; host or cells: SK-N-MC human neuroblastoma cells, stably transfected with pRChPR-A-neo and pMMTV-LUC
T2 sequence (P06401 1-769 isoform P06401-2): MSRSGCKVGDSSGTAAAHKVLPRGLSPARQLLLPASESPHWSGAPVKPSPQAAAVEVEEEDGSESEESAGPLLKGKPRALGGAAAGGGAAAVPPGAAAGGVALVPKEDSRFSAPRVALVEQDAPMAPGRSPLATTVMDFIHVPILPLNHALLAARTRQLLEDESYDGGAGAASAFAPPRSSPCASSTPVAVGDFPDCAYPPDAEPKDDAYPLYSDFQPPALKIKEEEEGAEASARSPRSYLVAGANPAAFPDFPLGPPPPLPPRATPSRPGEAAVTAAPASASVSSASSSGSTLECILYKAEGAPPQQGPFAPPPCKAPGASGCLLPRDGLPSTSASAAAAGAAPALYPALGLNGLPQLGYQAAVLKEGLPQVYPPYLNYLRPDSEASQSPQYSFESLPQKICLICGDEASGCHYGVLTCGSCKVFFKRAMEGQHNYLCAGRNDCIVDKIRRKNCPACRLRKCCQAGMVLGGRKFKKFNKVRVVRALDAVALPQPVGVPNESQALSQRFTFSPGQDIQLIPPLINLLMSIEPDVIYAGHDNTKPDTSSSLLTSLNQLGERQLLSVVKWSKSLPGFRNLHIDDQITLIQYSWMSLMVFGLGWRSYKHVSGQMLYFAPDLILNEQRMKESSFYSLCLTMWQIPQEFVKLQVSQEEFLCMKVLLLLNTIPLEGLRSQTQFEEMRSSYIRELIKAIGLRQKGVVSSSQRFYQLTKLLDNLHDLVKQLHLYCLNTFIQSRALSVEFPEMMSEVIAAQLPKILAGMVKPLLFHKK
Description: as §1, §2

pregnant rats = experiment: Abortive test on female rats (termination of early pregnancy); format: in vivo, rat; conditions: for Abortion rate: d5-d7 p.c., autopsy d9 p.c.
Description: The antagonistic effect of the compounds according to the invention was tested on pregnant rats (6 rats per group) on day (d) 5 to 7 post coitum (p.c.) under conventional keeping and feeding conditions.
After successful pairing, the pregnant animals (presence of sperm in the vaginal smear on day 1 of the pregnancy=d1 p.c.) were randomized and divided into the treatment group and the control group. The animals were then given, subcutaneously or orally, in each case 0.15; 0.5; 1.5 or 5 mg/kg of the test compound or […] of vehicle (benzyl benzoate/ricinus oil: 1+4 [v/v]) daily from day 5 to day 7 (d5-d7 p.c.).
The autopsy was carried out on day 9 (d9 p.c.). As the parameter of the progesterone receptor antagonistic effect, the uterus was investigated with regard to the presence of nidation sites. Here, the complete lack of nidation sites, but also the presence of pathological, haemmorhagic or otherwise abnormal nidation sites, on day 9 (d9 p.c.) was evaluated as an abortion.

SMILES | IC50 [1] [nM] | IC50 [2] [nM] | Abortion rate (pregnant rats; daily dose 0.5 mg/kg p.o.) [%] | Abortion rate (pregnant rats; daily dose 1.5 mg/kg p.o.) [%] | Abortion rate (pregnant rats; daily dose 5.0 mg/kg p.o.) [%] | In vivo properties in preclinical tests (pregnant rats; preclinical tests, not further specified)
C[C@]12C[C@H](c3ccc(CN4CCOCC4)cc3)C3=C4CCC(=O)C=C4CC[C@H]3[C@@H]1CC[C@@]2(O)C(F)(F)C(F)(F)F [Example 7, (11β,17β)-17-Hydroxy-11-[4-(morpholin-4-ylmethyl)phenyl]-17-(pentafluoroethyl)estra-4,9-dien-3-one] | 0.1 | 0.1 | – | – | – | –
CC(C)(C)OC(=O)N1CCCN(Cc2ccc([C@H]3C[C@@]4(C)[C@@H](CC[C@@]4(O)C(F)(F)C(F)(F)F)[C@@H]4CCC5=CC(=O)CCC5=C43)cc2)CC1 [Example 6, tert-Butyl 4-{4-[(11β,17β)-17-hydroxy-3-oxo-17-(pentafluoroethyl)estra-4,9-dien-11-yl]benzyl}-1,4-diazepane-1-carboxylate] | 0.3 | 0.33 | – | – | – | –
C[C@]12C[C@H](c3ccc(CN4CCCCC4)cc3)C3=C4CCC(=O)C=C4CC[C@H]3[C@@H]1CC[C@@]2(O)C(F)(F)C(F)(F)F [Example 4, (11β,17β)-17-Hydroxy-17-(pentafluoroethyl)-11-[4-(piperidin-1-ylmethyl)phenyl]estra-4,9-dien-3-one] | 2.1 | 1.4 | – | – | – | –
C[C@]12C[C@H](c3ccc(CN4CCN(S(C)(=O)=O)CC4)cc3)C3=C4CCC(=O)C=C4CC[C@H]3[C@@H]1CC[C@@]2(O)C(F)(F)C(F)(F)F [Example 12, (11β,17β)-17-Hydroxy-11-(4-{[4-(methylsulphonyl)piperazin-1-yl]methyl}phenyl)-17-(pentafluoroethyl)estra-4,9-dien-3-one] | 0.1 | 0.17 | 100 | 100 | 100 | exceptional in vivo properties
CC(C)(C)C(=O)N1CCN(Cc2ccc([C@H]3C[C@@]4(C)C(CC[C@@]4(O)C(F)(F)C(F)(F)F)C4CCC5=CC(=O)CCC5=C43)cc2)CC1 (stereo partly drawn) [Example 14, (11β,17β)-11-(4-{[4-(2,2-Dimethylpropanoyl)piperazin-1-yl]methyl}phenyl)-17-hydroxy-17-(pentafluoroethyl)estra-4,9-dien-3-one] | 0.094 | 0.1 | – | – | – | –
C[C@]12C[C@H](c3ccc(CN4CCNCC4)cc3)C3=C4CCC(=O)C=C4CC[C@H]3[C@@H]1CC[C@@]2(O)C(F)(F)C(F)(F)F [Example 10, (11β,17β)-17-Hydroxy-17-(pentafluoroethyl)-11-[4-(piperazin-1-yl-methyl)phenyl]estra-4,9-dien-3-one] | 0.12 | 0.88 | – | – | – | –
C[C@]12C[C@H](c3ccc(CN4CCN(C(=O)c5ccccc5)CC4)cc3)C3=C4CCC(=O)C=C4CCC3C1CC[C@@]2(O)C(F)(F)C(F)(F)F (stereo partly drawn) [Example 13, (11β,17β)-11-{4-[(4-Benzoylpiperazin-1-yl)methyl]phenyl}-17-hydroxy-17-(Pentafluoroethyl)estra-4,9-dien-3-one] | 0.1 | 0.092 | – | – | – | –

Further compounds by falling IC50 [1], results first:

IC50 [1] [nM] | IC50 [2] [nM] | SMILES | Abortion rate (pregnant rats; daily dose 0.5 mg/kg p.o.) [%] | Abortion rate (pregnant rats; daily dose 1.5 mg/kg p.o.) [%] | Abortion rate (pregnant rats; daily dose 5.0 mg/kg p.o.) [%] | In vivo properties in preclinical tests (pregnant rats; preclinical tests, not further specified)
60 | 53 | C[C@]12C[C@H](c3ccc(CN4CCC(C(=O)O)CC4)cc3)C3=C4CCC(=O)C=C4CC[C@H]3[C@@H]1CC[C@@]2(O)C(F)(F)C(F)(F)F [Example 15, 1-{4-[(11β,17β)-17-hydroxy-3-oxo-17-(pentafluoroethyl)estra-4,9-dien-11-yl]benzyl}piperidine-4-carboxylic acid] | – | – | – | –
8.2 | 7.5 | CN(C)Cc1ccc([C@H]2C[C@@]3(C)C(CC[C@@]3(O)C(F)(F)C(F)(F)F)C3CCC4=CC(=O)CCC4=C32)cc1 (stereo partly drawn) [Example 1, (11β,17β)-11-{4-[(Dimethylamino)methyl]phenyl}-17-hydroxy-17-(pentafluoroethyl)estra-4,9-dien-3-one] | – | – | – | –
2.8 | 2.7 | C[C@]12C[C@H](c3ccc(CN4CCCNCC4)cc3)C3=C4CCC(=O)C=C4CCC3C1CC[C@@]2(O)C(F)(F)C(F)(F)F (stereo partly drawn) [Example 16, (11β,17β)-11-[4-(1,4-Diazepan-1-ylmethyl)phenyl]-17-hydroxy-17-(pentafluoroethyl)estra-4,9-dien-3-one] | – | – | – | –
0.99 | 1.2 | COC(=O)C1CCN(Cc2ccc([C@H]3C[C@@]4(C)[C@@H](CC[C@@]4(O)C(F)(F)C(F)(F)F)[C@@H]4CCC5=CC(=O)CCC5=C43)cc2)CC1 [Example 5, Methyl 1-{4-[(11β,17β)-17-hydroxy-3-oxo-17-(pentafluoroethyl)estra-4,9-dien-11-yl]benzyl}piperidine-4-carboxylate] | – | – | – | –
0.98 | 1.3 | C[C@]12C[C@H](c3ccc(CNCCc4ccccc4)cc3)C3=C4CCC(=O)C=C4CC[C@H]3[C@@H]1CC[C@@]2(O)C(F)(F)C(F)(F)F [Example 9, (11β,17β)-17-Hydroxy-17-(pentafluoroethyl)-11-(4-{[(2-phenylethyl)amino]methyl}phenyl)estra-4,9-dien-3-one] | – | – | – | –
0.57 | 0.56 | CC(=O)N1CCCN(Cc2ccc([C@H]3C[C@@]4(C)C(CC[C@@]4(O)C(F)(F)C(F)(F)F)C4CCC5=CC(=O)CCC5=C43)cc2)CC1 (stereo partly drawn) [Example 17, (11β,17β)-11-{4-[(4-Acetyl-1,4-diazepan-1-yl)methyl]phenyl}-17-hydroxy-17-(pentafluoroethyl)estra-4,9-dien-3-one] | – | – | – | –
0.3 | 0.1 | C[C@]12C[C@H](c3ccc(CN4CCS(=O)(=O)CC4)cc3)C3=C4CCC(=O)C=C4CCC3C1CC[C@@]2(O)C(F)(F)C(F)(F)F (stereo partly drawn) [Example 8, (11β,17β)-11-{4-[(1,1-Dioxidothiomorpholin-4-yl)methyl]phenyl}-17-hydroxy-17-(pentafluoroethyl)estra-4,9-dien-3-one] | – | – | – | –
